Earlier results in patent US20060073200A1, “Lercanidipine capsules” (Recordati Ireland Limited, priority 2004, published 2006).
Like-named read-outs stand apart in the source and are kept apart here.

How the values were obtained:
[1] = tested on: Caco-2 cell apparatus
[2] = target: cytochrome P450 IIIA4 isoenzyme (Homo sapiens, UniProt P08684); conditions: extensive presystemic first pass elimination
[3] = not given; remark: listed apart in the source

cytochrome P450 IIIA4 isoenzyme, sequence (P08684 whole entry): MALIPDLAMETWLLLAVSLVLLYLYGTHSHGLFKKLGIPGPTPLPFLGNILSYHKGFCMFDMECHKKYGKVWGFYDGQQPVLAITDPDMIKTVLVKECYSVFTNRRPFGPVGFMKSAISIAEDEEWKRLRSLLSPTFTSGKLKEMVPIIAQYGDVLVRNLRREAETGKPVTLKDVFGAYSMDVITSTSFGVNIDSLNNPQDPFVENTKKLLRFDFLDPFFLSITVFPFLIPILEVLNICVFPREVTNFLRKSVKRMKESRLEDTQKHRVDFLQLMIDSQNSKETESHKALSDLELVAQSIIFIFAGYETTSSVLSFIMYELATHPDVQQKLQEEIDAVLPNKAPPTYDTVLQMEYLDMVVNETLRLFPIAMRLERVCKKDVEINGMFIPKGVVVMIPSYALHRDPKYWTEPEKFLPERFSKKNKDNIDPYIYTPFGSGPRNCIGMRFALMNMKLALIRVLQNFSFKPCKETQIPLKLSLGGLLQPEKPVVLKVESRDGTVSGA

COC(=O)C1=C(C)NC(C)=C(C(=O)OC(C)(C)CN(C)CCC(c2ccccc2)c2ccccc2)C1c1cccc([N+](=O)[O-])c1 (centres unmarked) [Lercanidipine, methyl 1,1,N-trimethyl-N-(3,3-diphenylpropyl)-2-aminoethyl 1,4-dihydro-2,6-dimethyl-4-(3-nitrophenyl)pyridine-3,5-dicarboxylate]
solubility (acidic media, at pH 5): less than 20 μg/ml
solubility (pH greater than 5): less than 5 μg/ml
aqueous solubility (water, lercanidipine and its salts): about 5 μg/ml
Paap [1]: 0.05 ×10⁻⁶ cm/s
substrate for cytochrome P450 IIIA4 isoenzyme [2]: substrate
increase in amount of lercanidipine absorbed with simultaneous intake of food ([3]; food (especially high fat content) compared to administration without food): three to four fold
plasma level of lercanidipine ([3]; immediate release dosage forms, by 24 h): below 1 ng/ml
peak plasma level (Tmax) ([3]; oral administration of an immediate release form): 1 to 3 h
